According to patent publication US20070117834A1, “Methods and compositions for treating Huntington's disease” (priority 2005, published 2007):
Entries after “also recorded” stand apart in the source; their conditions may differ.

How the values were obtained:
[1] = system: transgenic Drosophila engineered to express the mutant huntingtin protein in all their neurons; details: historical reference; cited from earlier work
[2] = system: transgenic Drosophila engineered to express the mutant huntingtin protein in all their neurons; assay: Motor ability (climbing assay) in the Drosophila model; assay type: in vivo; details: for numbers surviving to be tested at day 7: initial number of 20 animals at day 0
Protocol: The motor function of Drosophila obtained as described in the examples above was assessed by exploiting the strong negative geotropism of flies to climb upwards when they are tapped to the bottom of a vial. See, Le Bourg and Lint (1992) Hypergravity and aging in Drosophila melanogaster. 4. […] activity. Gerontology 38, 59-64. Animals were placed in a graduated vessel (e.g., a measuring cylinder). The distance climbed in 10 seconds was measured for each animal over 3 trials with a 5 minute rest period. In a separate experiment using tall thin plastic tubes rather than glass vials, the distance climbed in 30 seconds was also measured. Animals were scored for outcome without knowledge of treatment group. Flies were tested for functional rescue using a behavior assay (climbing assay) where the distance climbed was measured. […] In this assay, climbing was scored blind and each animal was given 3 trials that were then averaged. The climbing of 7 day old animals reared on 0, 10, 100 or 1,000 μM containing food was compared as was the climbing of animals on the day of eclosion. Two trials were performed. In the first, the ability to climb in large glass vials was monitored over 10 seconds. […] The second trial was similar to the first except that animals were tested in tall thin plastic tubes for climbing over 30 seconds. […] The data from the two independent climbing trials are plotted as individual data points in FIG. 6A and 6B. A higher statistical power (e.g., 0.8) given the observed standard deviations and differences of the means may be achieved by doubling the size of the experiment for the highest concentration and increasing about 10 fold for the lower concentrations.

[3] = system: wildtype Drosophila fruit flies; assay: Toxicity of dimebon in wildtype Drosophila (eclosion number and timing); assay type: in vivo
Protocol: Dimebon was evaluated for toxicity levels in wildtype Drosophila fruit flies. Dimebon was administered daily at doses ranging from 10 μM to 1 mM to explore its toxicity. An untreated control group was also studied in this experiment. The concentrations given were concentrations of dimebon in the food that animals drink/eat ad libitum. The food consisted of cornmeal (61.2 g), dextrose (129.4. g), yeast (32.4 g) and agar (9.3 g) in 1 liter of water. Concentrated compounds were added to melted agar food cooled to just above the point of setting (about 40° C.), mixed and dispensed.
About 500 wild type Drosophila eggs were collected on grape juice plates for 20 hours, washed with distilled water and transferred 100 per vial to grow at 25 degrees C. The adult progeny were scored after eclosing (emerging from the pupal case) beginning 10 days later to assess developmental delay and toxicity. The criteria used for toxicity were the number (%) of animals that eclose and the time of the eclosing. For example, fewer animals may emerge from the pupal case if a drug is toxic or the same number of animals may eclose but more slowly than the untreated control group.
The toxicity test employed five concentrations (10 μM, 30 μM, 100 μM, 300 μM, 1 mM) plus an untreated control and was repeated with five sets of flies. […] At 1 mM, there was approximately a 20% decrease in eclosion observed, indicating toxicity at this food concentration. ANOVA analysis indicated a significant difference between datasets (p=0.0031), with post-hoc testing indicating a significant difference between the control and 1 mM datasets (p<0.01).

[4] = system: transgenic Drosophila engineered to express the mutant huntingtin protein in all their neurons; assay: Inhibition of mutant huntingtin-induced neurodegeneration of photoreceptor neurons in Drosophila eyes (pseudopupil scoring); assay type: in vivo; details: for rescue of photoreceptor neurons / rescue of photoreceptor neurons compared to untreated controls: FIG. 2; for rescue of photoreceptor neurons compared to untreated controls: 7 days on drug-containing food; for suppression of photoreceptor neuron degeneration, retest: FIG. 3; for protection of photoreceptors, overall statement: in vivo
Protocol: Dimebon was administered to one group of transgenic Drosophila engineered to express the mutant huntingtin protein in all their neurons. This was accomplished by cloning a foreign gene into transposable p-element DNA vectors under control of a yeast upstream activator sequence that is activated by the yeast GAL4 transcription factor. These promoter fusions were injected into fly embryos to produce transgenic animals. The foreign gene is silent until crossed to another transgenic strain of flies expressing the GAL4 gene in a tissue specific manner. The Elav>Gal4 which expresses the transgene in all neurons from birth until death was used in the experiments described.
For compound testing, 20-30 Httex1pQ93 virgins were mated to elav>Gal4 males and eggs were collected for about 20 hours at 25° C. and dispensed into vials (expected about 70% lethality from Htt effects). Upon eclosion, at least 80, 0-8 hour old flies were harvested and place on drug-containing food (20 eclosed adults per vial) and scored when 7 days old. Inhibitor-containing food was prepared just before tester flies began to emerge.
The two types of transgenic animals were crossed in order to collect enough closely matched aged controls to study. The crossed aged-matched adults (about 20 per dosing group) were placed on drug-containing food for 7 days. Animals were transferred to fresh food daily to minimize any effects caused by instability of the compounds. Survival was scored daily. The average number of photoreceptors at day zero was determined by scoring 7-10 of the newly eclosed tester siblings within six hours of eclosing. This established the baseline of degeneration at the time of exposure to drug. At day 7, animals were sacrificed and the number of photoreceptor neurons surviving was counted. […] For pseudopupil analysis, flies were decapitated and the heads are mounted in a drop of nail polish on a microscopic slide. The head was then covered with immersion oil and light is projected through the eye of the fly using a Nikon EFD-3/Optiphot-2 compound microscope with a 50× oil objective.

C[C@@H](N)[C@H]1CC[C@H](C(=O)Nc2ccncc2)CC1 [Y-27632]
rescue of photoreceptor neurons, historical positive control [1]: strongly rescuing

Cc1ccc2c(c1)c1c(n2CCc2ccc(C)nc2)CCN(C)C1.Cl.Cl [dimebon, 2,8-dimethyl-5-(2-(6-methyl-3-pyridyl)-ethyl)-2,3,4,5-tetrahydro-1H-pyrido[4,3-b]indole dihydrochloride]
numbers surviving to be tested at day 7 ([2]; 10 μM): 8 | numbers surviving to be tested at day 7 ([2]; 100 μM): 12 | climbing behavior over 10 seconds ([2]; 1 mM (1000 μM), 7 day old animals, glass vials, FIG. 5, dihydrochloride): significant difference between the control and 1000 μM; also recorded: statistically significant improvement in climbing; also recorded: statistical difference between D7ND and 1 mM | numbers surviving to be tested at day 7 ([2]; 1 mM): 8 | climbing behavior over 30 seconds ([2]; 10, 100 or 1,000 μM, tall thin plastic tubes, second trial, dihydrochloride): No statistically demonstrable difference between treated and control groups | timing of emergence slowed ([3]; 1 mM): approximately 1 day | decrease in eclosion ([3]; 1 mM in the food): ~20% | toxicity (tolerability) ([3]; 10 to 300 μM in the food, below 1 mM, dihydrochloride): generally well tolerated; also recorded: no significant toxicity | toxicity in Drosophila, overall statement ([3]; FIG. 1 / experimental summary): minimal toxicity | rescue of photoreceptor neurons ([4]; 10 μM): lesser but still apparent rescue of neurons | rescue of photoreceptor neurons compared to untreated controls ([4]; 100 μM, dihydrochloride): statistically significant (p=0.0014) rescue of neurons | rescue of photoreceptor neurons compared to untreated controls ([4]; 100 μM, listed as Dimebon, dihydrochloride): significant suppression of neuronal degeneration | suppression of photoreceptor neuron degeneration, retest ([4]; 100 μM, dihydrochloride): significant improvement; also recorded: significant rescue | rescue of photoreceptor neurons ([4]; 1 mM): still appeared to cause neuronal rescue, but to a lesser extent | suppression of photoreceptor neuron degeneration, lower concentrations ([4]; 1, 10 and 30 μM, FIG. 4, dihydrochloride): no statistically significant improvement; also recorded: modest tendency for improved photoreceptor numbers | suppression of photoreceptor neuron degeneration, retest ([4]; higher doses (300 or 1,000 μM)): no statistically demonstrable improvement | protection of photoreceptors, overall statement ([4]; dihydrochloride): effective in inhibiting mutant huntingtin-induced neurodegeneration | protection of photoreceptors, overall statement ([4]; listed as Dimebon, dihydrochloride): protect photoreceptors in a dose-dependant manner | previously measured optimum concentration ([4]; photoreceptor rescue): 100 µM
